“Also recorded” adds a separate entry of the source. Where two headings read alike, the source gives them in different places.
System: patients with cGVHD

## CC(C)NC(=O)COc1cccc(-c2nc(Nc3ccc4[nH]ncc4c3)c3ccccc3n2)c1 [Belumosudil, 2-{3-[4-(1H-indazol-5-ylamino)-2-quinazolinyl]phenoxy}-N-(propan-2-yl) acetamide]
Cohort 3 400 mg QD
  Pleural effusion: Affected/At Risk (%): 1/21 (4.76%)
  Pneumonia respiratory syncytial viral: # Events: 0
  Pneumonia respiratory syncytial viral: Affected/At Risk (%): 0/21 (0%)
  Pneumonia: # Events: 0
  Pneumonia: Affected/At Risk (%): 0/21 (0%)
  Pollakiuria: # Events: 0
  Pollakiuria: Affected/At Risk (%): 0/21 (0%)
  Presyncope: # Events: 0
  Presyncope: Affected/At Risk (%): 0/21 (0%)
  Productive cough: # Events: 2
  Productive cough: Affected/At Risk (%): 1/21 (4.76%)
  Proteinuria: # Events: 0
  Proteinuria: Affected/At Risk (%): 0/21 (0%)
  Pruritus: # Events: 0
  Pruritus: Affected/At Risk (%): 0/21 (0%)
  Pseudomonas infection: # Events: 0
  Pseudomonas infection: Affected/At Risk (%): 0/21 (0%)
  Pulmonary mass: # Events: 1
  Pulmonary mass: Affected/At Risk (%): 1/21 (4.76%)
  Pyrexia: # Events: 3
  Pyrexia: Affected/At Risk (%): 3/21 (14.29%)
  Rash erythematous: # Events: 0
  Rash erythematous: Affected/At Risk (%): 0/21 (0%)
  Rash maculo-papular: # Events: 0
  Rash maculo-papular: Affected/At Risk (%): 0/21 (0%)
  Rash pustular: # Events: 0
  Rash pustular: Affected/At Risk (%): 0/21 (0%)
  Rash: # Events: 1
  Rash: Affected/At Risk (%): 1/21 (4.76%)
  Red blood cells urine positive: # Events: 0
  Red blood cells urine positive: Affected/At Risk (%): 0/21 (0%)
  Renal failure: # Events: 0
  Renal failure: Affected/At Risk (%): 0/21 (0%)
  Respiratory syncytial virus infection: # Events: 3
  Respiratory syncytial virus infection: Affected/At Risk (%): 2/21 (9.52%)
  Respiratory tract infection fungal: # Events: 0
  Respiratory tract infection fungal: Affected/At Risk (%): 0/21 (0%)
  Respiratory tract infection: # Events: 0
  Respiratory tract infection: Affected/At Risk (%): 0/21 (0%)
  Restless legs syndrome: # Events: 0
  Restless legs syndrome: Affected/At Risk (%): 0/21 (0%)
  Rosacea: # Events: 0
  Rosacea: Affected/At Risk (%): 0/21 (0%)
  SAE, No. (%): 12 (57)
  Sinus pain: # Events: 0
  Sinus pain: Affected/At Risk (%): 0/21 (0%)
  Sinusitis: # Events: 1
  Sinusitis: Affected/At Risk (%): 1/21 (4.76%)
  Skin abrasion: # Events: 2
  Skin abrasion: Affected/At Risk (%): 2/21 (9.52%)
  Skin lesion: # Events: 0
  Skin lesion: Affected/At Risk (%): 0/21 (0%)
  Skin papilloma: # Events: 0
  Skin papilloma: Affected/At Risk (%): 0/21 (0%)
  Spinal compression fracture: # Events: 0
  Spinal compression fracture: Affected/At Risk (%): 0/21 (0%)
  Squamous cell carcinoma of skin: # Events: 0
  Squamous cell carcinoma of skin: Affected/At Risk (%): 0/21 (0%)
  Stomatitis: # Events: 1
  Stomatitis: Affected/At Risk (%): 1/21 (4.76%)
  Superior vena cava syndrome: # Events: 0
  Superior vena cava syndrome: Affected/At Risk (%): 1/21 (4.76%)
  TEAE, participants (%): 20 (95%) participants
  TESAE, participants (%): 13 (62%) participants
  Tachycardia: # Events: 2
  Tachycardia: Affected/At Risk (%): 2/21 (9.52%)
  Tendonitis: # Events: 0
  Tendonitis: Affected/At Risk (%): 0/21 (0%)
  Testicular pain: # Events: 0
  Testicular pain: Affected/At Risk (%): 0/21 (0%)
  Testicular swelling: # Events: 0
  Testicular swelling: Affected/At Risk (%): 0/21 (0%)
  Thoracic spinal stenosis: # Events: 0
  Thoracic spinal stenosis: Affected/At Risk (%): 0/21 (0%)
  Thrombocytopenia: # Events: 1
  Thrombocytopenia: Affected/At Risk (%): 1/21 (4.76%)
  Thrombocytosis: # Events: 0
  Thrombocytosis: Affected/At Risk (%): 0/21 (0%)
  Tinea pedis: # Events: 0
  Tinea pedis: Affected/At Risk (%): 0/21 (0%)
  Tooth fracture: # Events: 0
  Tooth fracture: Affected/At Risk (%): 0/21 (0%)
  Total other adverse events: Affected/At Risk (%): 19/21 (90.48%)
  Transfusion reaction: # Events: 0
  Transfusion reaction: Affected/At Risk (%): 0/21 (0%)
  Tremor: # Events: 4
  Tremor: Affected/At Risk (%): 3/21 (14.29%)
  Type 2 diabetes mellitus: # Events: 0
  Type 2 diabetes mellitus: Affected/At Risk (%): 0/21 (0%)
  Ulcerative keratitis: # Events: 0
  Ulcerative keratitis: Affected/At Risk (%): 0/21 (0%)
  Upper respiratory tract infection: # Events: 9
  Upper respiratory tract infection: Affected/At Risk (%): 7/21 (33.33%)
  Upper-airway cough syndrome: # Events: 1
  Upper-airway cough syndrome: Affected/At Risk (%): 1/21 (4.76%)
  Urinary retention: # Events: 0
  Urinary retention: Affected/At Risk (%): 0/21 (0%)
  Urinary tract infection: # Events: 0
  Urinary tract infection: Affected/At Risk (%): 0/21 (0%)
  Urinary tract pain: # Events: 1
  Urinary tract pain: Affected/At Risk (%): 1/21 (4.76%)
  Urine output decreased: # Events: 0
  Urine output decreased: Affected/At Risk (%): 0/21 (0%)
  Vascular access complication: # Events: 0
  Vascular access complication: Affected/At Risk (%): 0/21 (0%)
  Vertigo: # Events: 0
  Vertigo: Affected/At Risk (%): 0/21 (0%)
  Vision blurred: # Events: 4
  Vision blurred: Affected/At Risk (%): 4/21 (19.05%)
  Vomiting: # Events: 4
  Vomiting: Affected/At Risk (%): 4/21 (19.05%)
  Weight decreased: # Events: 4
  Weight decreased: Affected/At Risk (%): 2/21 (9.52%)
  Weight increased: # Events: 4
  Weight increased: Affected/At Risk (%): 1/21 (4.76%)
  White blood cell count decreased: # Events: 2
  White blood cell count decreased: Affected/At Risk (%): 1/21 (4.76%)
Example 1
  cytomegalovirus (CMV) infection or reactivation: No cases; also recorded: no reported CMV infection or reactivation
  deaths attributed to belumosudil: none of the deaths attributed to belumosudil
  dose response with respect to observed AEs: no dose response
  median duration of dose interruption: 10 days
  median duration of dose reduction: 97 days
  patients who discontinued because of potentially drug-related AEs: Three
  patients with dose interruptions: 41%
  patients with dose reductions: 9%
  tolerability: well-tolerated
Example 1, N=54
  grade ≥3 cytopenias: 4%
  grade ≥3 dyspnea: 13%
  grade ≥3 hyperglycemia: 7%
  grade ≥3 hypoxia: 7%
  grade ≥3 increased liver function tests: 7%
  patients with a grade ≥3 AE: Sixty-one
  patients with cough: 22%
  patients with diarrhea: 33%
  patients with dyspnea: 30%
  patients with fatigue: 33%
  patients with headache: 24%
  patients with hypertension: 20%
  patients with increased liver function tests: 33%
  patients with nausea: 33%
  patients with peripheral edema: 24%
  patients with serious AEs: 43%
  patients with upper respiratory infection: 46%
  serious AE dyspnea: 7%
  serious AE hypoxia: 4%
  serious AE influenza-like illness: 4%
  serious AE lung infection: 6%
Example 1, all in cohort 3
  patients who died during the study: Four
Total, N=54
  All grade ALT/AST increased, No. (%): 18 (33)
  All grade Cough, No. (%): 12 (22)
  All grade Diarrhea, No. (%): 18 (33)
  All grade Dyspnea, No. (%): 16 (30)
  All grade Fatigue, No. (%): 18 (33)
  All grade Headache, No. (%): 13 (24)
  All grade Hypertension, No. (%): 11 (20)
  All grade Nausea, No. (%): 18 (33)
  All grade Peripheral edema, No. (%): 13 (24)
  All grade URI, No. (%): 25 (46)
  Any AE, No. (%): 53 (98)
  Death, No. (%): 2 (4)
  Drug-related AE, No. (%): 30 (56)
  Drug-related SAE, No. (%): 0
  Grade ≥3 AE, No. (%): 33 (61)
  Grade ≥3 ALT/AST increased, No. (%): 4 (7)
  Grade ≥3 Anemia, No. (%): 3 (6)
  Grade ≥3 Dyspnea, No. (%): 7 (13)
  Grade ≥3 Hyperglycemia, No. (%): 4 (7)
  Grade ≥3 Hypoxia, No. (%): 4 (7)
  Grade ≥3 Lung infection or pneumonia, No. (%): 5 (9)
  SAE, No. (%): 23 (43)

Source: US20260027116A1, “Methods of Treating Chronic Graft-Versus-Host Disease Following Allogeneic Hematopoietic Stem Cell Transplantation” (Kadmon Corporation, LLC, priority 2022, published 2026)
